Results reported in PubChem BioAssay (NCI).
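Growth conditions: 96-well plates. Treatment: test compound, 48 hours, 5 concentrations. Analysis: linear interpolation between bracketing concentrations; unreached endpoints set to highest concentration. GI50: concentration for 50% inhibition of growth. The concentration for full growth arrest is given as TGI.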

Tests used:
Assay in all cases: inhibition of tumour cell growth, NCI panel, 48 h
[1] = tested on: 786-0 renal
[2] = tested on: A498 renal
[3] = tested on: A549 NSCLC
[4] = tested on: ACHN renal
[5] = tested on: BT-549 breast
[6] = tested on: CCRF-CEM leukemia
[7] = tested on: DU-145 prostate
[8] = tested on: HCC-2998 colon
[9] = tested on: HCT-116 colon
[10] = tested on: HOP-62 NSCLC
[11] = tested on: HT29 colon
[12] = tested on: K-562 leukemia
[13] = tested on: M14 melanoma
[14] = tested on: MALME-3M melanoma
[15] = tested on: MCF7 breast
[16] = tested on: MDA-MB-231 breast
[17] = tested on: MDA-MB-435
[18] = tested on: MOLT-4 leukemia
[19] = tested on: NCI-H460 lung
[20] = tested on: NCI/ADR-RES ovarian
[21] = tested on: OVCAR-3 ovarian
[22] = tested on: OVCAR-4 ovarian
[23] = tested on: OVCAR-5 ovarian
[24] = tested on: RPMI-8226 leukemia
[25] = tested on: RXF 393 renal
[26] = tested on: SF-268 CNS
[27] = tested on: SF-539 CNS
[28] = tested on: SK-MEL-5 melanoma
[29] = tested on: SNB-19 CNS
[30] = tested on: SNB-75 CNS
[31] = tested on: SR leukemia
[32] = tested on: TK-10 renal
[33] = tested on: U251 CNS
[34] = tested on: UACC-257 melanoma
[35] = tested on: UO-31 renal
[36] = tested on: COLO 205 colon
[37] = tested on: EKVX NSCLC
[38] = tested on: HCT-15 colon
[39] = tested on: HOP-92 NSCLC
[40] = tested on: HS 578T breast
[41] = tested on: IGROV1 ovarian
[42] = tested on: KM12 colon
[43] = tested on: NCI-H23 lung
[44] = tested on: OVCAR-8 ovarian
[45] = tested on: PC-3 prostate
[46] = tested on: SF-295 CNS
[47] = tested on: SK-MEL-28 melanoma
[48] = tested on: SK-OV-3 ovarian
[49] = tested on: T-47D breast
[50] = tested on: CAKI-1 renal
[51] = tested on: HL-60(TB) leukemia
[52] = tested on: LOX IMVI melanoma
[53] = tested on: NCI-H226 lung
[54] = tested on: NCI-H522 lung
[55] = tested on: SK-MEL-2 melanoma
[56] = tested on: SN12C renal
[57] = tested on: SW-620 colon
[58] = tested on: UACC-62 melanoma

Compound: COc1cccc2c1/c(=C/c1ccc(N(C)C)cc1)c1cc(-c3ccccc3)[n+](C)n12
- TGI [1]: 1.1 µM
- TGI [2]: 1.3 µM
- TGI [3]: 2.5 µM
- TGI [4]: 0.8 µM
- TGI [5]: 0.774 µM
- TGI [6]: 1.45 µM
- TGI [7]: 1.75 µM
- TGI [8]: 1.08 µM
- TGI [9]: 0.765 µM
- TGI [10]: 2.08 µM
- TGI [11]: 0.129 µM
- TGI [12]: 1.39 µM
- TGI [13]: 1.08 µM
- TGI [14]: 0.684 µM
- TGI [15]: 1.29 µM
- TGI [16]: 2.2 µM
- TGI [17]: 1.65 µM
- TGI [18]: 0.623 µM
- TGI [19]: 0.949 µM
- TGI [20]: > 100 µM
- TGI [21]: 1.5 µM
- TGI [22]: 3.16 µM
- TGI [23]: 1.66 µM
- TGI [24]: 1.27 µM
- TGI [25]: 1.94 µM
- TGI [26]: 1.37 µM
- TGI [27]: 14.9 µM
- TGI [28]: 0.312 µM
- TGI [29]: 1.72 µM
- TGI [30]: 0.997 µM
- TGI [31]: 0.899 µM
- TGI [32]: 1.03 µM
- TGI [33]: 1.32 µM
- TGI [34]: 0.692 µM
- TGI [35]: 0.802 µM

Compound: Cc1sc2nc(-c3ccc([N+](=O)[O-])cc3)c(/C=N/N=C(N)N)n2c1C
- TGI [1]: 0.637 µM
- TGI [3]: 2.88 µM
- TGI [4]: 2.61 µM
- TGI [5]: 2.79 µM
- TGI [36]: 0.809 µM
- TGI [7]: 2.74 µM
- TGI [37]: 2.41 µM
- TGI [8]: 0.693 µM
- TGI [9]: 0.427 µM
- TGI [38]: 2.82 µM
- TGI [10]: 2.12 µM
- TGI [39]: 2.81 µM
- TGI [40]: 3.49 µM
- TGI [11]: 1.63 µM
- TGI [41]: 2.71 µM
- TGI [42]: 1.03 µM
- TGI [13]: 1.99 µM
- TGI [16]: 1.17 µM
- TGI [17]: 2.25 µM
- TGI [43]: 2.73 µM
- TGI [20]: 11 µM
- TGI [23]: 2.81 µM
- TGI [44]: 1.8 µM
- TGI [45]: 2.65 µM
- TGI [46]: 2.42 µM
- TGI [27]: 3.26 µM
- TGI [47]: 1.37 µM
- TGI [48]: 3.12 µM
- TGI [49]: 3.1 µM
- TGI [32]: 2.84 µM
- TGI [33]: 0.358 µM
- TGI [34]: 2.77 µM
- TGI [35]: 2.98 µM

Compound: S=c1ssc(Oc2ccccc2)c1Cl
- GI50 [1]: 6.63 µM
- TGI [1]: 20.7 µM
- GI50 [3]: 33.9 µM
- TGI [3]: > 100 µM
- GI50 [4]: 4.5 µM
- TGI [4]: 16.1 µM
- GI50 [5]: 12.7 µM
- TGI [5]: 31.7 µM
- GI50 [50]: 16 µM
- TGI [50]: 29.5 µM
- GI50 [6]: 1.02 µM
- TGI [6]: 5.84 µM
- GI50 [36]: 23 µM
- TGI [36]: 47.5 µM
- GI50 [7]: 14.5 µM
- TGI [7]: 28.9 µM
- GI50 [37]: 18.4 µM
- TGI [37]: 38.9 µM
- GI50 [8]: 3.7 µM
- TGI [8]: 14.7 µM
- GI50 [38]: 7.76 µM
- TGI [38]: 22.6 µM
- GI50 [51]: 3.21 µM
- TGI [51]: > 100 µM
- GI50 [10]: 37 µM
- TGI [10]: > 100 µM
- GI50 [39]: 14.8 µM
- TGI [39]: 36.2 µM
- GI50 [11]: 1.37 µM
- TGI [11]: > 100 µM
- GI50 [12]: 2.68 µM
- TGI [12]: > 100 µM
- GI50 [42]: 13.2 µM
- TGI [42]: 26 µM
- GI50 [52]: 5.61 µM
- TGI [52]: 22.7 µM
- GI50 [13]: 18 µM
- TGI [13]: 43.2 µM
- GI50 [16]: 14.2 µM
- TGI [16]: 29.6 µM
- GI50 [17]: 14.2 µM
- TGI [17]: 27.2 µM
- GI50 [18]: 0.73 µM
- TGI [18]: > 100 µM
- GI50 [53]: 27 µM
- TGI [53]: 73.8 µM
- GI50 [43]: 12.6 µM
- TGI [43]: 50.9 µM
- GI50 [19]: 16.9 µM
- TGI [19]: 33.1 µM
- GI50 [54]: 23.2 µM
- TGI [54]: 42.5 µM
- GI50 [20]: 16.4 µM
- TGI [20]: 35.4 µM
- GI50 [21]: 7.74 µM
- TGI [21]: 20.4 µM
- GI50 [22]: 34 µM
- TGI [22]: > 100 µM
- GI50 [23]: 23.2 µM
- TGI [23]: 49.9 µM
- GI50 [44]: 29.5 µM
- TGI [44]: 62.4 µM
- GI50 [45]: 10.2 µM
- TGI [45]: 23.9 µM
- GI50 [24]: 0.95 µM
- TGI [24]: 7.7 µM
- GI50 [25]: 12 µM
- TGI [25]: 29.8 µM
- GI50 [26]: 13.3 µM
- TGI [26]: 26.1 µM
- GI50 [46]: 15.1 µM
- TGI [46]: 28.3 µM
- GI50 [27]: 17.3 µM
- TGI [27]: 33.8 µM
- GI50 [55]: 33.9 µM
- TGI [55]: 83.3 µM
- GI50 [47]: 11.9 µM
- TGI [47]: 32 µM
- GI50 [28]: 17.3 µM
- TGI [28]: 35.1 µM
- GI50 [48]: 39.4 µM
- TGI [48]: > 100 µM
- GI50 [56]: 11.7 µM
- TGI [56]: 28.2 µM
- GI50 [29]: 31.6 µM
- TGI [29]: 79.6 µM
- GI50 [30]: 18 µM
- TGI [30]: 45 µM
- GI50 [31]: 0.605 µM
- TGI [31]: > 100 µM
- GI50 [57]: 1.9 µM
- TGI [57]: 5.24 µM
- GI50 [49]: 21.5 µM
- TGI [49]: 43 µM
- GI50 [32]: 3 µM
- TGI [32]: 9.68 µM
- GI50 [33]: 7.06 µM
- TGI [33]: 26.4 µM
- GI50 [34]: 17.6 µM
- TGI [34]: 35.5 µM
- GI50 [58]: 14 µM
- TGI [58]: 26.9 µM
- GI50 [35]: 19 µM
- TGI [35]: 58.8 µM

Compound: NC(N)=N/N=C/c1c(-c2cc([N+](=O)[O-])c(Cl)cc2Cl)nc2sccn12
- TGI [1]: 3.11 µM
- TGI [50]: 33.7 µM
- GI50 [36]: 1.38 µM
- TGI [36]: 2.84 µM
- GI50 [8]: 1.36 µM
- TGI [8]: 2.76 µM
- GI50 [9]: 0.272 µM
- TGI [9]: 1.02 µM
- TGI [51]: 4.31 µM
- TGI [10]: 3.44 µM
- GI50 [11]: 1.79 µM
- TGI [11]: 3.18 µM
- GI50 [41]: 0.712 µM
- TGI [41]: 2.03 µM
- TGI [20]: > 100 µM
- TGI [23]: 3.39 µM
- TGI [47]: 2.67 µM
- TGI [48]: 3.39 µM
- GI50 [29]: 0.274 µM
- TGI [29]: 56.3 µM
- TGI [35]: 2.6 µM
